Results from US20240197683A1 (JIANGSU UNIVERSITY, priority 2023, published 2024).
Counter-ions that a name gives are not always drawn. Like-named read-outs stand apart in the source and are kept apart here.

Experiments:
[1] = system: IL-6, IL-1β and TNF-α in mouse serum; test: Inflammatory factors in blood of mice with sepsis at different time points; assay type: in vivo
[2] = system: mice with sepsis-related acute lung injury; test: Efficacy of HucMSC-NVs loaded with ergothioneine in sepsis-related acute lung injury; assay type: in vivo; conditions: FIG. 11 A-C
Description: Referring to FIG. 11, three classical inflammatory factors (IL-1β, IL-6, and TNF-α) in BALF are shown in panels A-C.

[3] = system: mice with sepsis-related acute lung injury; test: Sepsis-related acute lung injury in mice (BALF, leakage, arterial oxygen); assay type: in vivo
Description: Comparisons of data between the four groups are of statistical significance.
Changes in the protein content of mouse BALF, the Evans blue content and the wet/dry weight ratio are shown. […] There is a downward trend in the arterial partial pressure of oxygen in all the injury group mice relative to the normal mice.

cytokine-infused rats = conditions: cited from earlier work
[4] = system: mice with LPS-induced sepsis; test: Edema in organs (wet/dry weight ratio) of mice with sepsis; assay type: in vivo; conditions: prevention
A549 cells = conditions: co-treatment with TNF-α or H2O2; cited from earlier work
[5] = system: mice with LPS-induced sepsis; conditions: 20 mg/kg LPS i.p.; for average survival time: LPS group 28.8±6.22 h
Description: Method: A mouse model of sepsis was induced by intraperitoneal injection of different toxic doses of 5 mg/kg, 10 mg/kg and 20 mg/kg LPS, and the effects of different doses of LPS on the survival rate of mice with sepsis were observed.
Sepsis was induced by intraperitoneal injection of 5 mg/kg, 10 mg/kg and 20 mg/kg LPS. […] Sepsis was induced by intraperitoneal injection of 20 mg/kg LPS.

[6] = system: TLR-4/MyD88/NF-κB signaling pathway; test: Related gene expression in lung tissues of mice with sepsis; assay type: in vivo; conditions: after treatment and prevention
Description: The differences are of statistical significance.

[7] = prevention: tail vein injection 1 h before 20 mg/kg LPS i.p., FIG. 3
[8] = treatment: tail vein injection 2 h after 20 mg/kg LPS i.p., FIG. 4

C[N+](C)(C)[C@@H](Cc1c[nH]c(=S)[nH]1)C(=O)[O-] [ergothioneine, (S)-α-Carboxy-N,N,N-trimethyl-2-mercapto-1H-imidazole-4-ethanaminium inner salt]
IL-1β release in blood [1, 7]: significantly reduced | IL-6 release in blood [1, 7]: significantly reduced | IL-6 release in blood [1, 8]: significantly reduced | TNF-α release in blood [1, 8]: significantly reduced | level of inflammatory factors in BALF (IL-6, TNF-α, IL-1β) [2]: reduced the level of inflammatory factors in BALF | arterial partial pressure of oxygen ([3]; different concentrations of EGT, FIG. 7 G): significantly improved | inflammatory factor levels in BALF (IL-1β, IL-6 and TNF-α) ([3]; four groups with different concentrations of ergothioneine, FIG. 7 A-C): reduced inflammatory factor levels in BALF | acute lung injury (cytokine-infused rats): reduce acute lung injury | kidney edema [4]: not significantly ameliorated | GSH level (A549 cells): protected the cells from decreases in the GSH level | NF-κB activation (A549 cells): inhibited NF-κB activation | average survival time ([5]; 5 mg/kg ergothioneine): 41.4 ± 10.48 h | average survival time ([5]; 10 mg/kg ergothioneine): 44.4 ± 3.921 h | mortality in mice with sepsis ([5]; FIG. 2): reduced mortality | average survival time ([5]; 50 mg/kg ergothioneine): 46.8 ± 2.68 h | mice died ([5]; prevention, 5 mg/kg ergothioneine): 2 mice | mice died ([5]; prevention, 10 mg/kg ergothioneine): 3 mice | mice died ([5]; prevention, 20 mg/kg ergothioneine): all | mice died ([5]; prevention, 50 mg/kg ergothioneine): 1 mouse | mice died ([5]; treatment, 5 mg/kg ergothioneine): all | mice died ([5]; treatment, 10 mg/kg ergothioneine): all | mice died ([5]; treatment, 20 mg/kg ergothioneine): 4 mice | mice died ([5]; treatment, 50 mg/kg ergothioneine): 3 mice | TLR-4 gene expression ([6]; FIG. 9 A): significantly down-regulated | MyD88 gene expression ([6]; FIG. 9 B): significantly down-regulated | NF-κB gene expression ([6]; FIG. 9 C): significantly down-regulated
